We go through two compounds from ChEMBL document CHEMBL1201862, “PubChem BioAssay data set” (2004).

Experiment [1] in a line: viability loss in HEK293 cells – cell-based, plate reader, cherry-picked samples, cytotoxicity control, dose response (AID 743446). The class given is functional.
Experiment [2] deals with 1-phosphatidylinositol 4,5-bisphosphate phosphodiesterase gamma-1 (Homo sapiens, UniProt P19174). Put plainly: Counterscreen for inhibitors of phospholipase C isozymes (PLC-B3): Fluorescence-based biochemical high throughput dose response assay to identify inhibitors of phospholipase C isozymes (PLC-gamma1). For orientation: Counterscreens check selectivity or assay interference.

The target in experiment [3] is T1, DNA repair and recombination protein RAD54-like (Homo sapiens, UniProt Q92698).
T1 sequence (Q92698 whole entry): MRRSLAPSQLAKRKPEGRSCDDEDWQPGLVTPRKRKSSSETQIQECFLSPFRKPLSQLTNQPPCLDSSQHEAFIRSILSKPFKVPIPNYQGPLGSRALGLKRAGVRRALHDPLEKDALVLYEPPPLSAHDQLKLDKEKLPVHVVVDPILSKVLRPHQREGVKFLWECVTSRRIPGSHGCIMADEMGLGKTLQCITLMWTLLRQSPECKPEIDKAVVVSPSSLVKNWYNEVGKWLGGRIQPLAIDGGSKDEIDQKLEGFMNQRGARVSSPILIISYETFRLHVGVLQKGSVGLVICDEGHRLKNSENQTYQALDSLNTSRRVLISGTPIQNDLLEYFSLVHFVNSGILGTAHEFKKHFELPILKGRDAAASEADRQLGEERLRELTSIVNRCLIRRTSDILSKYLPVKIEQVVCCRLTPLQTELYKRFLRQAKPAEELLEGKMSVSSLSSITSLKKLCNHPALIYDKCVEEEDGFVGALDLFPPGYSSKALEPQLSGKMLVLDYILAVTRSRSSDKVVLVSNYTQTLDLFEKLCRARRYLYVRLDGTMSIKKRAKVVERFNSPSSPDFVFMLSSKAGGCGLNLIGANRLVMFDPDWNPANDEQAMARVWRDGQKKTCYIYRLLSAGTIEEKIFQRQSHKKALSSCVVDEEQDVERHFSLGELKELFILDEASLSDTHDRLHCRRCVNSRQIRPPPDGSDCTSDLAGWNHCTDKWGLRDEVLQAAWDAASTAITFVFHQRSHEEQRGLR
Put plainly: RAD54 Holliday junction migration blockers – biochemical, fluorescence, cherry-picked samples, dose series, confirmation (AID 651657). It counts as functional.

The target of another experiment is Phospholipase A2 (Homo sapiens, UniProt P04054). The class given is functional.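 Also: confirmatory dose-response counterscreen on phospholipase A2, testing hits that came from an ultra-high-throughput screen for ATG4B inhibitors.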
In experiment [4] the target is Dual specificity tyrosine-phosphorylation-regulated kinase 1A (Rattus norvegicus, UniProt Q63470). It counts as biochemical, Homo sapiens.
Experiment [5] deals with Maternal embryonic leucine zipper kinase (Homo sapiens, UniProt Q14680). It counts as functional.
The target in the next experiment is Ephrin type-A receptor 2 (Homo sapiens, UniProt P29317). It counts as functional.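 Also: EPHA2 tested as one member of a kinome-wide kinase panel.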
Experiment [6] addresses Protein kinase C gamma type (Homo sapiens, UniProt P05129). It counts as functional.
Experiment [7] has as its target Cyclin-dependent kinase 1 (Homo sapiens, UniProt P06493). It counts as functional.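 Also: Kinome-wide panel profiling, with the target listed as panel member CDC2.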
The target in experiment [8] is cAMP-dependent protein kinase catalytic subunit alpha (Homo sapiens, UniProt P17612). The class given is functional.
Experiment [9] has as its target Tyrosine-protein kinase JAK3 (Homo sapiens, UniProt P52333). The class given is functional.
Experiment [10] concerns the target Interleukin-1 receptor-associated kinase 1 (Homo sapiens, UniProt P51617). It counts as functional.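 Also: IRAK1 tested as one member of a kinome panel.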
For experiment [11], the target named is Cyclin-dependent kinase 2 (Homo sapiens, UniProt P24941). It counts as functional.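 Also: CDK2 measured as one member of a broad kinome profiling panel.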
Experiment [12] concerns the target Serine/threonine-protein kinase N2 (Homo sapiens, UniProt Q16513). The class given is functional.
For experiment [13], the target named is Tyrosine-protein kinase Lck (Homo sapiens, UniProt P06239). It counts as functional.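 Also: lck was assayed as one member of a kinase panel.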
Experiment [14] has as its target Serine/threonine-protein kinase 3 (Homo sapiens, UniProt Q13188). The class given is functional.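 Also: measured as one member of a kinome-wide kinase panel.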
The next experiment addresses Aurora kinase B (Homo sapiens, UniProt Q96GD4). The class given is functional.
In experiment [15] the target is RAC-alpha serine/threonine-protein kinase (Homo sapiens, UniProt P31749). The class given is functional.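 Also: AKT1 affinity measured as one member of a kinome-wide kinase profiling panel.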
Experiment [16] concerns the target Casein kinase I isoform gamma-1 (Homo sapiens, UniProt Q9HCP0). It counts as functional.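 Also: measured as the CSNK1G1 member of a kinome profiling panel.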
Experiment [17] concerns the target Serine/threonine-protein kinase DCLK1 (Homo sapiens, UniProt O15075). It counts as functional.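 Also: affinity for DCLK1 (listed as DCAMKL1) measured as one member of a kinome-wide kinase profiling panel.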
The target in experiment [18] is T2, Lymphokine-activated killer T-cell-originated protein kinase (Homo sapiens, UniProt Q96KB5).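 Also: value comes from a kinase panel screen in which TOPK was one of the panel members.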
T2 sequence (Q96KB5 whole entry): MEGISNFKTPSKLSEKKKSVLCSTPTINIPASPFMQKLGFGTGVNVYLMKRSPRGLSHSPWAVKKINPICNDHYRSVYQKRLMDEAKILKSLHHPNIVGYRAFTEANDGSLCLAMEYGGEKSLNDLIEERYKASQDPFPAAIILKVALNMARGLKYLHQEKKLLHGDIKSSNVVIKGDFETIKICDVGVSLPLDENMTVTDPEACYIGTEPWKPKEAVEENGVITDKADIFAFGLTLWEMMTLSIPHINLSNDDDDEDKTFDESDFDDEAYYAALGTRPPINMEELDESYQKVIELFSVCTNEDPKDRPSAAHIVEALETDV
It counts as functional.

Experiment [19] has as its target Non-receptor tyrosine-protein kinase TYK2 (Homo sapiens, UniProt P29597). The class given is functional.
Experiment [20] deals with Phosphorylase b kinase gamma catalytic chain, liver/testis isoform (Homo sapiens, UniProt P15735). It counts as functional.
Experiment [21] deals with cAMP-dependent protein kinase catalytic subunit PRKX (Homo sapiens, UniProt P51817). It counts as functional.
In experiment [22] the target is MAP kinase-activated protein kinase 2 (Homo sapiens, UniProt P49137). The class given is functional.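 Also: measured as one member of a kinome-wide kinase panel.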
The target in experiment [23] is Mitogen-activated protein kinase 12 (Homo sapiens, UniProt P53778). It counts as functional.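 Also: measured as one member of a kinome-wide kinase profiling panel.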
In experiment [24] the target is Ribosomal protein S6 kinase alpha-3 (Homo sapiens, UniProt P51812). It counts as functional.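 Also: measured within a kinome-wide profiling panel.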
In experiment [25] the target is Serine/threonine-protein kinase PAK 4 (Homo sapiens, UniProt O96013). It counts as functional.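 Also: value obtained within a kinome profiling panel in which PAK4 was one of the panel members.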
Experiment [26] has as its target Calcium/calmodulin-dependent protein kinase type 1 (Homo sapiens, UniProt Q14012). The class given is functional.
Experiment [27] addresses Mitogen-activated protein kinase 9 (Homo sapiens, UniProt P45984). It counts as functional.
The target of experiment [28] is Mitogen-activated protein kinase kinase kinase kinase 2 (Homo sapiens, UniProt Q12851). It counts as functional.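 Also: measured as one member of a kinome-wide kinase panel, with MAP4K2 as the panel entry.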

By AC50 is commonly meant the concentration giving half of the maximal activity seen. As a reminder, the IC50 is the midpoint of a concentration-inhibition curve. For orientation: Ki means a measure of affinity in units of concentration, obtained from inhibition or displacement.

Calls of active or inactive are those of the source.

Sequence of Cyclin-dependent kinase 1 (P06493 whole entry): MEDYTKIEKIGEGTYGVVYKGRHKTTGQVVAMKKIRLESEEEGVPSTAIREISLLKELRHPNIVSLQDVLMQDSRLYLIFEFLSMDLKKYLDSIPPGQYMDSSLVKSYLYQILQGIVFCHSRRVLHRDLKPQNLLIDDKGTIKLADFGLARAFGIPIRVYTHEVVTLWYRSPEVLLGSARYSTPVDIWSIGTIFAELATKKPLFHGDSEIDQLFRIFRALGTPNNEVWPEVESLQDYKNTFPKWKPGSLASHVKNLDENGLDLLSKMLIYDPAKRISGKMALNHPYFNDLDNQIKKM
Sequence of Phospholipase A2 (P04054 whole entry): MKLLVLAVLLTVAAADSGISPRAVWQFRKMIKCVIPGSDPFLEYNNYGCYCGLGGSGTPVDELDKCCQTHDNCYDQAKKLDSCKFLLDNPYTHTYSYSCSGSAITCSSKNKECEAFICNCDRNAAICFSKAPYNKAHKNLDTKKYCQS
Sequence of Serine/threonine-protein kinase N2 (Q16513 whole entry): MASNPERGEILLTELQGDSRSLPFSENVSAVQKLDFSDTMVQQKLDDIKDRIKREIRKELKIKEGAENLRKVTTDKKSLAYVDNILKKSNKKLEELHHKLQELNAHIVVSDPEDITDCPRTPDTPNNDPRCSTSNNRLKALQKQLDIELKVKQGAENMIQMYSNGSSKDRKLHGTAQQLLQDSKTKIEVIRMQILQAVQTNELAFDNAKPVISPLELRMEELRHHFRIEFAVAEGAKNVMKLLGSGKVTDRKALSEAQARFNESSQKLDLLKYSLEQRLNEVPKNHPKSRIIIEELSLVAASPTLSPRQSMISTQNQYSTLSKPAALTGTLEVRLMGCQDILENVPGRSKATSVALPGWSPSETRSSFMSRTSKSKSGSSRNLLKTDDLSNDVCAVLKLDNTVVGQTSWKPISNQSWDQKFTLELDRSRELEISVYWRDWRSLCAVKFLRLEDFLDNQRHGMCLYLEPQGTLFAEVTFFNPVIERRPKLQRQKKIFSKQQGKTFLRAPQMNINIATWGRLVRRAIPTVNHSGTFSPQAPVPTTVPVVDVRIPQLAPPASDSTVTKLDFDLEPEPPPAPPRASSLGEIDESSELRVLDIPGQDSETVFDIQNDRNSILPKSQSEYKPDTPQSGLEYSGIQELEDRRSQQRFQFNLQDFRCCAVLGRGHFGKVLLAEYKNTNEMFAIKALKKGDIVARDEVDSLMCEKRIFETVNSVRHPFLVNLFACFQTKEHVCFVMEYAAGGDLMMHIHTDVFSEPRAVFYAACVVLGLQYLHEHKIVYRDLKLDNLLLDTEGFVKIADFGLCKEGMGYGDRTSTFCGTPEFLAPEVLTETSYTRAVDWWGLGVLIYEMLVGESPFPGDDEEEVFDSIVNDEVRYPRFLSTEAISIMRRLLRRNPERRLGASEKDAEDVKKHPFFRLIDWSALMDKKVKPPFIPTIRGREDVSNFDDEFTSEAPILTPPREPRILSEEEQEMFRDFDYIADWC
Sequence of Casein kinase I isoform gamma-1 (Q9HCP0 whole entry, canonical isoform): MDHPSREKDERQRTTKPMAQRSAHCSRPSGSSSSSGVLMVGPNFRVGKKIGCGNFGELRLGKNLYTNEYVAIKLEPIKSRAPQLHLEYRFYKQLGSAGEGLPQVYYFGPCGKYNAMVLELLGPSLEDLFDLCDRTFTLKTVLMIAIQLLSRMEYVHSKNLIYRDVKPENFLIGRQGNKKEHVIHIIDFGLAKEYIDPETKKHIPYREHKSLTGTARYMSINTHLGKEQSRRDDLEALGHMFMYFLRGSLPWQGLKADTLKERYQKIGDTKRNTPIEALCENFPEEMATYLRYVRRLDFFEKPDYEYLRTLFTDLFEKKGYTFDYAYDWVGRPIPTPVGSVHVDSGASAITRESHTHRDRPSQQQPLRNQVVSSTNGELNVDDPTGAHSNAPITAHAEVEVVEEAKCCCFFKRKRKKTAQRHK
Sequence of Serine/threonine-protein kinase PAK 4 (O96013 whole entry): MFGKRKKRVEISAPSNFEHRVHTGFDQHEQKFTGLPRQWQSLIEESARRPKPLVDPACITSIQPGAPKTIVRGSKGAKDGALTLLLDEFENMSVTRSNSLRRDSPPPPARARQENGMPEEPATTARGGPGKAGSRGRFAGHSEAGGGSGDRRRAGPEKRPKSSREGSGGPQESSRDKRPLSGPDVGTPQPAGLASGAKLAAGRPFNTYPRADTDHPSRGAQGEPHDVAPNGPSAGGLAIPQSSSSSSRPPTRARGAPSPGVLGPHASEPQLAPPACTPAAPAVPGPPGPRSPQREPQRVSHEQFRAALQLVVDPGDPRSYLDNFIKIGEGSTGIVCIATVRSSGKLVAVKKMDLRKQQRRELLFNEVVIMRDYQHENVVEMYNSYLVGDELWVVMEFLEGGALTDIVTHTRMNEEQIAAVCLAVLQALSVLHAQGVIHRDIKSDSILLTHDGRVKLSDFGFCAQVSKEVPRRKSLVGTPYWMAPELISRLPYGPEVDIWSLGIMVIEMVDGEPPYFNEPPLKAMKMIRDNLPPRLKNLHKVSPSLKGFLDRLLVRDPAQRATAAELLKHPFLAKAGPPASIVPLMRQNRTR
Sequence of MAP kinase-activated protein kinase 2 (P49137 whole entry): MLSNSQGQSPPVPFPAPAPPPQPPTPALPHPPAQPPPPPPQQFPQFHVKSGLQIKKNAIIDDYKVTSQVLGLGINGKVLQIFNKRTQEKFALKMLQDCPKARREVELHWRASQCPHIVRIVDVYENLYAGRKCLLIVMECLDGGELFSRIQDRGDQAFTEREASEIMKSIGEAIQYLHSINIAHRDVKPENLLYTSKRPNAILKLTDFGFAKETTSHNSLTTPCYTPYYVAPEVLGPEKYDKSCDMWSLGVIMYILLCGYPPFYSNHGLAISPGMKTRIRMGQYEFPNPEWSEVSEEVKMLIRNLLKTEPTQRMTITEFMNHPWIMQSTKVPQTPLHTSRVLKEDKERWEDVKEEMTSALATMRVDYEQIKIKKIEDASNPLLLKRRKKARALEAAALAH
Sequence of Ephrin type-A receptor 2 (P29317 whole entry): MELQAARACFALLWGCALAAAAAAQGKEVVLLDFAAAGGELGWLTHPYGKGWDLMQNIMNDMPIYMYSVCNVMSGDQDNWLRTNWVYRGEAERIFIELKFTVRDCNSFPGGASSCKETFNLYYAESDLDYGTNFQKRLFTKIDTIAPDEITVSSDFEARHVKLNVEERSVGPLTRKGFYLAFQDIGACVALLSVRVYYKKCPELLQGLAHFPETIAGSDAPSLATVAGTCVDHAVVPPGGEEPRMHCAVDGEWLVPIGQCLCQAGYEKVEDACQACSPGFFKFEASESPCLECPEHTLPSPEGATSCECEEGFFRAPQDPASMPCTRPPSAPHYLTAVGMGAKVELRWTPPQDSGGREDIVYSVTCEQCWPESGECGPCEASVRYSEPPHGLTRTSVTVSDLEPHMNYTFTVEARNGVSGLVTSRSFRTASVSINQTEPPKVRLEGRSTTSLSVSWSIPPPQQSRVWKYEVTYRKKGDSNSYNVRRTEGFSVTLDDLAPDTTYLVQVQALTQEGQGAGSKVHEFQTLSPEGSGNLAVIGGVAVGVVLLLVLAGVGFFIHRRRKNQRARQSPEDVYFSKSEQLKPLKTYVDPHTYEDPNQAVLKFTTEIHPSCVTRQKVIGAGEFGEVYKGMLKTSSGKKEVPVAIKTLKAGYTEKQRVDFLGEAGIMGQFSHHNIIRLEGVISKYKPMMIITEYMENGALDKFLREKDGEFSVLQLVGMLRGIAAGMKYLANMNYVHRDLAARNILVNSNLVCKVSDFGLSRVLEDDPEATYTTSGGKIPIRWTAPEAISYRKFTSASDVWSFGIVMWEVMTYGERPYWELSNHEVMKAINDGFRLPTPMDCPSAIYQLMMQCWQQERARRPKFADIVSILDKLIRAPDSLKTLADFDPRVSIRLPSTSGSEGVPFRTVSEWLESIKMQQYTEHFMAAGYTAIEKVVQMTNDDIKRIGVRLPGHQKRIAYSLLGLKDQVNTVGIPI
Sequence of Mitogen-activated protein kinase 9 (P45984 whole entry): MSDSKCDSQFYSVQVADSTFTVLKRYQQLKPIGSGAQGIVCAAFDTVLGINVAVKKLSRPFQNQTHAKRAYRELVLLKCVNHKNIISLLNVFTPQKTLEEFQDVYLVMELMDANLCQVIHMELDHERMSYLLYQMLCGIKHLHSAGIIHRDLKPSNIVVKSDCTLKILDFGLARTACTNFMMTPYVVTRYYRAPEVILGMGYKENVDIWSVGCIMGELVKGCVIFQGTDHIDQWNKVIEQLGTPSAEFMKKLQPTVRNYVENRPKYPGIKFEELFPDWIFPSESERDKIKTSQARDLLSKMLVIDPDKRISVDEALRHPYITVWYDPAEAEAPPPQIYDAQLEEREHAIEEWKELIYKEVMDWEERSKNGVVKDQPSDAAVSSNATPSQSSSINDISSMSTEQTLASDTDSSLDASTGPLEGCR
Sequence of Serine/threonine-protein kinase DCLK1 (O15075 whole entry): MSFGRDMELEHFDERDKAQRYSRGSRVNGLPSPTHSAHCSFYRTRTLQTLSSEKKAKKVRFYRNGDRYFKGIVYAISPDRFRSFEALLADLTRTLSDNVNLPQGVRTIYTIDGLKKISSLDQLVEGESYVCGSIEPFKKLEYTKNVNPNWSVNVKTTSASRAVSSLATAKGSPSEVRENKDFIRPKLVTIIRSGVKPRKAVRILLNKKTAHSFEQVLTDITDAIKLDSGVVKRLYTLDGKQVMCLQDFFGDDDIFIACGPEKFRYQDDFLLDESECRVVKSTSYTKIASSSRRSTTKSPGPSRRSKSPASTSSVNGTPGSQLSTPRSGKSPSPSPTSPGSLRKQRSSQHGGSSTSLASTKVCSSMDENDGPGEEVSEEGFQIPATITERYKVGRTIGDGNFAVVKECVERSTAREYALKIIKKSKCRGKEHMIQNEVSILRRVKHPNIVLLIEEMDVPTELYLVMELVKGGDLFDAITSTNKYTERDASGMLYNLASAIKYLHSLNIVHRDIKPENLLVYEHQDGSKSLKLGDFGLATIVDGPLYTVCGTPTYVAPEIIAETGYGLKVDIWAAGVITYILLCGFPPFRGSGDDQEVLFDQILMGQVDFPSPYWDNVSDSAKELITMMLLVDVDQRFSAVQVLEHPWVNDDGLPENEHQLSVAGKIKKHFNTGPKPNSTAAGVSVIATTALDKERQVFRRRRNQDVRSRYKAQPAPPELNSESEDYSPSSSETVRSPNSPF

For the compound `CCCc1nc2c(=O)n(C)c(=O)nc-2n(C)n1`, the AC50 is 27.1 µM (active) in experiment [1], 1.13 µM (active) in [3] and 0.249 µM (active) in experiment [4]. In addition, the IC50 in experiment [2] was > 1.51 µM (active); on Phospholipase A2, > 80 µM (inactive).

Regarding `COc1cc2ncn(-c3cc(OCc4ccccc4C(F)(F)F)c(C(N)=O)s3)c2cc1OC` [GW843682X], the Ki in experiment [5] was 0.158 µM (active); at Ephrin type-A receptor 2, > 3.16 µM (inactive); in [6] it was > 7.94 µM (inactive); in experiment [7] it was > 7.94 µM (inactive); in experiment [8] it was > 7.94 µM (inactive); in experiment [9], 0.2 µM (active). The Ki in experiment [10] is > 7.94 µM (inactive); in experiment [11] it was > 7.94 µM (inactive); in [12], > 7.94 µM (inactive); in experiment [13], 2 µM (active); in experiment [14], 0.2 µM (active); on Aurora kinase B, > 6.31 µM (inactive). Also, the Ki is > 7.94 µM (inactive) in experiment [15]; > 6.31 µM (inactive) in experiment [16]; > 10 µM (inactive) in experiment [17]; > 10 µM (inactive) in experiment [18]; > 2 µM (inactive) in [19]; > 5.01 µM (inactive) in experiment [20]. Moreover, the Ki in experiment [21] was 1 µM (active); in experiment [22], > 7.94 µM (inactive); in experiment [23], > 6.31 µM (inactive); in [24], 7.94 µM (active); in experiment [25], > 5.01 µM (inactive); in experiment [26], > 7.94 µM (inactive). Also, the figures for the Ki in experiment [27] and in experiment [28] were > 3.98 µM (inactive) and > 6.31 µM (inactive), respectively.
